Test results reported in PubChem BioAssay (NCI).
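Grown in 96-well plates, cells were treated for 48 hours with each compound at five concentrations. Insufficient inhibition: endpoint recorded as highest concentration tested. The concentration for full growth arrest is given as TGI.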

Columns and labels:
Experiment in all cases: growth of human tumour cells (NCI), 48 h
SF-295 CNS = system: SF-295 CNS
UACC-62 melanoma = system: UACC-62 melanoma
SK-MEL-2 melanoma = system: SK-MEL-2 melanoma
MDA-N = system: MDA-N
HL-60(TB) leukemia = system: HL-60(TB) leukemia
MALME-3M melanoma = system: MALME-3M melanoma
RXF 393 renal = system: RXF 393 renal
HOP-62 NSCLC = system: HOP-62 NSCLC
LOX IMVI melanoma = system: LOX IMVI melanoma
SK-OV-3 ovarian = system: SK-OV-3 ovarian
HS 578T breast = system: HS 578T breast
NCI/ADR-RES ovarian = system: NCI/ADR-RES ovarian
RPMI-8226 leukemia = system: RPMI-8226 leukemia
EKVX NSCLC = system: EKVX NSCLC
IGROV1 ovarian = system: IGROV1 ovarian
U251 CNS = system: U251 CNS
TK-10 renal = system: TK-10 renal
786-0 renal = system: 786-0 renal
ACHN renal = system: ACHN renal
SN12C renal = system: SN12C renal
HCC-2998 colon = system: HCC-2998 colon
SK-MEL-28 melanoma = system: SK-MEL-28 melanoma
HT29 colon = system: HT29 colon
SF-268 CNS = system: SF-268 CNS
OVCAR-5 ovarian = system: OVCAR-5 ovarian
CCRF-CEM leukemia = system: CCRF-CEM leukemia
SW-620 colon = system: SW-620 colon
OVCAR-8 ovarian = system: OVCAR-8 ovarian
HCT-116 colon = system: HCT-116 colon
MDA-MB-435 = system: MDA-MB-435
SR leukemia = system: SR leukemia
KM12 colon = system: KM12 colon
A549 NSCLC = system: A549 NSCLC
SNB-19 CNS = system: SNB-19 CNS
PC-3 prostate = system: PC-3 prostate
COLO 205 colon = system: COLO 205 colon
NCI-H23 lung = system: NCI-H23 lung
HOP-92 NSCLC = system: HOP-92 NSCLC
MOLT-4 leukemia = system: MOLT-4 leukemia
BT-549 breast = system: BT-549 breast
SF-539 CNS = system: SF-539 CNS
T-47D breast = system: T-47D breast
OVCAR-4 ovarian = system: OVCAR-4 ovarian
UO-31 renal = system: UO-31 renal
SNB-75 CNS = system: SNB-75 CNS
HCT-15 colon = system: HCT-15 colon
DU-145 prostate = system: DU-145 prostate
MDA-MB-231 breast = system: MDA-MB-231 breast
M14 melanoma = system: M14 melanoma
MCF7 breast = system: MCF7 breast
OVCAR-3 ovarian = system: OVCAR-3 ovarian
NCI-H522 lung = system: NCI-H522 lung
NCI-H226 lung = system: NCI-H226 lung
UACC-257 melanoma = system: UACC-257 melanoma
CAKI-1 renal = system: CAKI-1 renal

Measured: TGI

O=C1NC(N2CCOCC2)=N/C1=C\c1ccc(Cl)cc1
> 100 µM: all assays above
